According to US9157105B2, “Biosynthesis of CMP-legionaminic acid from fructose-6-P, and respective pathway intermediates, using novel GDP-linked precursors” (priority 2008, dated 2015):

Legend:
Assay type in all cases: biochemical, Campylobacter jejuni 11168
[1] = test system: His6PtmE (Cj1329, nucleotidyltransferase); assay: His6PtmE substrate specificity (sugar-1-P acceptors and NTP donors); conditions: for PtmE activity with sugar-1-P acceptor: 10 mM sugar-1-P, 0.2 mM NTP, 30 min at 37° C.; for PtmE NTP donor specificity with this sugar acceptor: NTP = CTP, GTP or TTP
Procedure: […] GDP-glucosamine biosynthesis. The ‘one-pot’ enzymatic synthesis of GDP-GlcN from Fru-6-P (I→IV) was accomplished using a 3 ml reaction containing His6PtmF, PtmAHis6, PgmLHis6, His6PtmE, 5 mM Fru-6-P (I), 10 mM L-Gln, 1 mM DTT, 5 mM MgCl2, 0.8 U ml^−1 pyrophosphatase, and 2.5 mM GTP in 25 mM Tris pH 7.5. Large-scale enzymatic synthesis of GDP-GlcN (IV) was accomplished using a 12 ml reaction containing 50 mM Tris pH 7.5, 1 mM GTP, 1 mM MgCl2, 0.8 U ml^−1 pyrophosphatase, 1.2 mM GlcN-1-P (III) and approximately 4.8 mg of His6PtmE. The large-scale enzymatic synthesis of GDP-GlcNAc was performed similar to that above, except the scale was increased five-fold and GlcNAc-1-P was used in place of GlcN-1-P (III). Assessment of His6PtmE substrate specificity was accomplished using 9 reactions, 80 μl each, containing 50 mM Tris pH 7.5, 2 mM MgCl2, 50 μg His6PtmE, and various combinations of 10 mM sugar-1-P (GalN-1-P, GlcN-1-P or GlcNAc-1-P) and 0.2 mM NTP (CTP, GTP, or TTP). Conversion of GDP-GlcN to GDP-GlcNAc. The His6GlmU reaction was performed using 1 mM GDP-GlcN (IV), 1.2 mM acetyl-CoA and His6GlmU in 25 mM sodium phosphate pH 7.8, 25 mM NaCl, 10 mM β-mercaptoethanol. In addition, a control reaction was performed containing 1 mM GlcN-1-P (III) instead of IV. Biosynthesis of legionaminic acid from GDP-GlcNAc. The stepwise enzymatic synthesis of intermediates or products was accomplished in 2 stages (V→VI→VII→VIII, and then VIII→IX→X) using 1 mM of V, 0.5 mM NAD, 0.8 mM PLP, 8 mM L-Glu, 1.2 mM acetyl-CoA, 1.2 mM PEP, LegBHis6, His6LegC, His6LegH, His6LegG, and His6LegI as appropriate, in 25 mM sodium phosphate pH 7.3, 25 mM NaCl. Assessment of His6LegG activity involved monitoring the reaction kinetics by ^1H NMR (see NMR spectroscopy) for 75 min using 0.75 mM GDP-2,4-diacetamido-2,4,6-trideoxy-α-D-Glc (VIII), 4 μg His6LegG in 200 μl of 25 mM sodium phosphate pH 7.3, 25 mM NaCl at 25° C. In addition, the substrate flexibility of His6LegG was assessed using a 300 μl reaction containing 40 μg His6LegG, 25 mM sodium phosphate pH 7.3, 25 mM NaCl, and 0.75 mM UDP-2,4-diacetamido-2,4,6-trideoxy-α-D-Glc, with incubation at 37° C. for 1.5 h, and then overnight at 25° C. Biosynthesis of CMP-legionaminic acid. The CMP-activation of legionaminic acid (X→XI) was performed using a 20 ml reaction containing approximately 0.2 mM of X, 50 mM MgCl2, 3 mM CTP, and 15 mg of LegFHis6 in 25 mM sodium phosphate pH 7.8, 25 mM NaCl, with incubation at 37° C. for 5 h, and then 25° C. for 72 h. Metabolite purification. Typically, reactions were passed through an Amicon Ultra-15 (10,000 molecular weight cut-off) or Ultra-4 (5,000 molecular weight cut-off) filter membrane before analysis. As required, NDP-sugar preparations (GDP-Glc, GDP-GlcN, GDP-GlcNAc, CDP-GlcNAc, TDP-GlcNAc, and CMP-Leg) were lyophilized and desalted/purified using a Superdex Peptide 10/300 GL (Amersham Biosciences) column in 25 mM ammonium bicarbonate, pH 7.9. For further purity, the NDP-sugar samples above were subjected to anion-exchange chromatography (Mono Q 4.6/100 PE, Amersham Biosciences) using ammonium bicarbonate pH 7.9. Quantification of NDP-sugar preparations was determined using the molar extinction coefficients of CMP (ε260=7,400), GDP (ε260=11,500), TDP (ε260=8,700), and UDP (ε260=10,000).
(§1) CE analysis was performed using either a P/ACE 5510 or P/ACE MDQ system (Beckman Instruments, Mississauga, Ont) with diode array detection. The capillaries were bare silica 50 μm×50 cm, with a detector at 50 cm, and the running buffer was 25 mM sodium tetraborate pH 9.4. Samples were introduced by pressure injection for 6 sec, and the separation was performed at 18 kV for 20 min. Peak integration was done using the Beckman P/ACE station software.

[2] = test system: LegB (Cj1319, 4,6-dehydratase); assay: LegB C4,6 dehydratase reaction with NDP-sugars; conditions: in the presence or absence of NAD(P)+
Procedure: (§2) Enzymatic reactions were performed for 4.5 h at 37° C., and then overnight at 25° C., with approximately 200 μg ml^−1 respective protein concentration using chemicals from Sigma (unless otherwise indicated). GDP-glucosamine biosynthesis. The ‘one-pot’ enzymatic synthesis of GDP-GlcN from Fru-6-P (I→IV) was accomplished using a 3 ml reaction containing His6PtmF, PtmAHis6, PgmLHis6, His6PtmE, 5 mM Fru-6-P (I), 10 mM L-Gln, 1 mM DTT, 5 mM MgCl2, 0.8 U ml^−1 pyrophosphatase, and 2.5 mM GTP in 25 mM Tris pH 7.5. Large-scale enzymatic synthesis of GDP-GlcN (IV) was accomplished using a 12 ml reaction containing 50 mM Tris pH 7.5, 1 mM GTP, 1 mM MgCl2, 0.8 U ml^−1 pyrophosphatase, 1.2 mM GlcN-1-P (III) and approximately 4.8 mg of His6PtmE. The large-scale enzymatic synthesis of GDP-GlcNAc was performed similar to that above, except the scale was increased five-fold and GlcNAc-1-P was used in place of GlcN-1-P (III). Assessment of His6PtmE substrate specificity was accomplished using 9 reactions, 80 μl each, containing 50 mM Tris pH 7.5, 2 mM MgCl2, 50 μg His6PtmE, and various combinations of 10 mM sugar-1-P (GalN-1-P, GlcN-1-P or GlcNAc-1-P) and 0.2 mM NTP (CTP, GTP, or TTP). Conversion of GDP-GlcN to GDP-GlcNAc. The His6GlmU reaction was performed using 1 mM GDP-GlcN (IV), 1.2 mM acetyl-CoA and His6GlmU in 25 mM sodium phosphate pH 7.8, 25 mM NaCl, 10 mM β-mercaptoethanol. In addition, a control reaction was performed containing 1 mM GlcN-1-P (III) instead of IV. Biosynthesis of legionaminic acid from GDP-GlcNAc. The stepwise enzymatic synthesis of intermediates or products was accomplished in 2 stages (V→VI→VII→VIII, and then VIII→IX→X) using 1 mM of V, 0.5 mM NAD, 0.8 mM PLP, 8 mM L-Glu, 1.2 mM acetyl-CoA, 1.2 mM PEP, LegBHis6, His6LegC, His6LegH, His6LegG, and His6LegI as appropriate, in 25 mM sodium phosphate pH 7.3, 25 mM NaCl. Assessment of His6LegG activity involved monitoring the reaction kinetics by ^1H NMR (see NMR spectroscopy) for 75 min using 0.75 mM GDP-2,4-diacetamido-2,4,6-trideoxy-α-D-Glc (VIII), 4 μg His6LegG in 200 μl of 25 mM sodium phosphate pH 7.3, 25 mM NaCl at 25° C. In addition, the substrate flexibility of His6LegG was assessed using a 300 μl reaction containing 40 μg His6LegG, 25 mM sodium phosphate pH 7.3, 25 mM NaCl, and 0.75 mM UDP-2,4-diacetamido-2,4,6-trideoxy-α-D-Glc, with incubation at 37° C. for 1.5 h, and then overnight at 25° C. Biosynthesis of CMP-legionaminic acid. The CMP-activation of legionaminic acid (X→XI) was performed using a 20 ml reaction containing approximately 0.2 mM of X, 50 mM MgCl2, 3 mM CTP, and 15 mg of LegFHis6 in 25 mM sodium phosphate pH 7.8, 25 mM NaCl, with incubation at 37° C. for 5 h, and then 25° C. for 72 h. Metabolite purification. Typically, reactions were passed through an Amicon Ultra-15 (10,000 molecular weight cut-off) or Ultra-4 (5,000 molecular weight cut-off) filter membrane before analysis. As required, NDP-sugar preparations (GDP-Glc, GDP-GlcN, GDP-GlcNAc, CDP-GlcNAc, TDP-GlcNAc, and CMP-Leg) were lyophilized and desalted/purified using a Superdex Peptide 10/300 GL (Amersham Biosciences) column in 25 mM ammonium bicarbonate, pH 7.9. For further purity, the NDP-sugar samples above were subjected to anion-exchange chromatography (Mono Q 4.6/100 PE, Amersham Biosciences) using ammonium bicarbonate pH 7.9. Quantification of NDP-sugar preparations was determined using the molar extinction coefficients of CMP (ε260=7,400), GDP (ε260=11,500), TDP (ε260=8,700), and UDP (ε260=10,000).
as §1

[3] = molecular target: T1, His6LegG (Cj1328, NDP-sugar hydrolase/2-epimerase) (Campylobacter jejuni subsp. jejuni serotype O:2, UniProt Q0P8T0); assay: His6LegG activity and substrate flexibility (1H NMR, CE)
T1 construct: made in house; host or cells: E. coli BL21[DE3]
Procedure: as §2, with “The CMP-activation of legionaminic acid (X→XI) was performed using a 20 ml reaction containing approximately 0.2 mM of X, 50 mM MgCl2, 3 mM CTP, and 15 mg of LegFHis6 in 25 mM sodium phosphate pH 7.8, 25 mM NaCl, with incubation at 37° C. for 5 h, and then 25° C. for 72 h. Metabolite purification. Typically, reactions were passed through an Amicon Ultra-15 (10,000 molecular weight cut-off) or Ultra-4 (5,000 molecular weight cut-off) filter membrane before analysis. As required, NDP-sugar preparations (GDP-Glc, GDP-GlcN, GDP-GlcNAc, CDP-GlcNAc, TDP-GlcNAc, and CMP-Leg) were lyophilized and desalted/purified using a Superdex Peptide 10/300 GL (Amersham Biosciences) column in 25 mM ammonium bicarbonate, pH 7.9. For further purity, the NDP-sugar samples above were subjected to anion-exchange chromatography (Mono Q 4.6/100 PE, Amersham Biosciences) using ammonium bicarbonate pH 7.9.” left out, “(ε260=10,000). […]” for “(ε260=10,000).”

T1 sequence (Q0P8T0 whole entry): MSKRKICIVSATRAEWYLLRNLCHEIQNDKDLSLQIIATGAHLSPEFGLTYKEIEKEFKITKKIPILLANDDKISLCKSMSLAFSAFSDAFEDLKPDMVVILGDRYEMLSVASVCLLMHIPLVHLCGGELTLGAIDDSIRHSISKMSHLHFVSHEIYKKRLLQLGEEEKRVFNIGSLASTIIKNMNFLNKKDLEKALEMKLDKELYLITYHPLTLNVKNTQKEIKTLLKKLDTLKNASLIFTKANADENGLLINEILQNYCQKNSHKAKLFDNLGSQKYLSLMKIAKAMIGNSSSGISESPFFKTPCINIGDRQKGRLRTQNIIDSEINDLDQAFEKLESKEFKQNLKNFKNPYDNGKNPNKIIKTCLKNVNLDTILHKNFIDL

SMILES	PtmE activity with sugar-1-P acceptor [1]	LegB reaction product formation [2]	further results
O=P(O)(O)O[C@H]1O[C@H](CO)[C@@H](O)[C@H](O)[C@H]1O [Glc-1-P, glucose-1-phosphate]	activity was observed	–	–
Cc1cn([C@H]2C[C@H](O)[C@@H](COP(=O)(O)OP(=O)(O)O[C@H]3O[C@H](CO)[C@@H](O)[C@H](O)[C@H]3O)O2)c(=O)[nH]c1=O [TDP-Glc]	–	did not yield discernable product	–
N[C@H]1C(OP(=O)(O)O)O[C@H](CO)[C@H](O)[C@@H]1O (stereo partly shown) [GalN-1-P]	no activity was observed	–	–
CC(=O)NC1C(OP(=O)(O)OP(=O)(O)OCC2OC(n3cc(C)c(=O)[nH]c3=O)CC2O)OC(CO)C(O)C1O (stereo not shown) [TDP-GlcNAc, TDP-N-acetyl-glucosamine]	–	did not yield discernable product	–
CC(=O)NC1C(OP(=O)(O)OP(=O)(O)OCC2OC(n3ccc(N)nc3=O)C(O)C2O)OC(CO)C(O)C1O (stereo not shown) [CDP-GlcNAc, CDP-N-acetyl-glucosamine]	–	did not yield discernable product	–
N[C@H]1[C@@H](OP(=O)(O)O)O[C@H](CO)[C@@H](O)[C@@H]1O [III, α-D-glucosamine-1-phosphate]	activity was observed	–	PtmE NTP donor specificity with this sugar acceptor [1]: absolutely specific for GTP
CC(=O)N[C@H]1[C@@H](OP(=O)(O)O)O[C@H](CO)[C@@H](O)[C@@H]1O [GlcNAc-1-P, N-acetyl-α-D-glucosamine-1-phosphate]	activity was observed	–	PtmE NTP donor specificity with this sugar acceptor [1]: exhibited promiscuity with respect to activator NTP donors
CC(=O)N[C@H]1[C@@H](OP(=O)(O)OP(=O)(O)OC[C@H]2O[C@@H](n3ccc(=O)[nH]c3=O)[C@H](O)[C@@H]2O)O[C@H](C)[C@@H](NC(C)=O)[C@@H]1O [UDP-2,4-diacetamido-2,4,6-trideoxy-α-D-glucose, reference compound]	–	–	NDP removal by LegG ([3]; quantity of LegG increased 10-fold, 90 min 37° C. then 16 h 25° C., CE): UDP removal was observed; formation of IX by LegG ([3]; similar conditions (4 μg LegG)): IX was not observed
CC(=O)N[C@H]1[C@@H](OP(=O)(O)OP(=O)(O)OC[C@H]2O[C@@H](n3cnc4c(=O)[nH]c(N)nc43)[C@H](O)[C@@H]2O)O[C@H](C)[C@@H](NC(C)=O)[C@@H]1O [VIII, GDP-2,4-diacetamido-2,4,6-trideoxy-α-D-glucose]	–	–	time to near completion of formation of IX by LegG ([3]; 4 μg LegG, 0.75 mM substrate, 25° C., in-tube 1H NMR): ≤ 75 min
CC(=O)N[C@H]1[C@@H](OP(=O)(O)OP(=O)(O)OC[C@H]2O[C@@H](n3ccc(=O)[nH]c3=O)[C@H](O)[C@@H]2O)O[C@H](CO)[C@@H](O)[C@@H]1O [UDP-GlcNAc, UDP-N-acetyl-α-D-glucosamine]	–	did not yield discernable product	–
